The values that follow come from patent US6942963B1, “Methods for identifying treatments for neurotoxicity in Alzheimer's disease caused by β-amyloid peptides” (Massachusetts Institute of Technology, priority 1997, dated 2005).

In series [1] the test system is βAP1-42-induced calcium influx, hNT cells. Description: βAP1-42 (Aβ1-42) aggregate-induced calcium influx in hNT cells: effect of decoy peptides and channel blockers. Conditions: for inhibition of calcium influx caused by aggregated Aβ1-42: summary statement, concentration not given; for effect on βAP1-42 calcium influx: βAP1-42 25 μM coincubated with equimolar decoy peptide at 37° C. for 44 hours. The class given is cell-based, human.

In series [2] the test system is βAP25-35-induced calcium influx, hNT cells. Description: βAP25-35-induced calcium influx in hNT cells: effect of channel antagonists and decoy peptides. It is filed as cell-based, human. Particulars: for effect on increase in internal calcium concentration due to βAP25-35: decoy peptide mixed with βAP25-35 at ratio 1:1 (20 μM+20 μM), hNT cells; for effect on βAP25-35 calcium influx at molar ratio: filtered stocks.

Series [3] concerns hNT cells. Description: Membrane depolarization of hNT cells by aggregated Aβ1-42 (DiBAC4(3) fluorescence). The class given is cell-based, human. Conditions: for inhibition of membrane depolarization by aggregated Aβ1-42: simultaneous presence, separately or together, summary statement. On the procedure:
Changes in membrane potential were measured using the fluorescent potentiometric probe DiBAC4(3), (Molecular Probes, Inc., Eugene, Oreg.). This dye, bis-(1,3-dibutylbarbituric acid)trimethine oxonol, detects membrane depolarization, because it enters depolarized cells and binds to intracellular proteins or membranes. […] Hyperpolarization results in extrusion of the anionic dye and thus a decrease in fluorescence. Our measurements use two dyes, fura-2 and DiBAC4(3), since these dyes have excitation wavelengths that are far apart, but have similar emission wavelengths. DiBAC4(3) was added to fura-2AM loaded hNT cells at a concentration of 100 nM in Tyr2Ca. Rapidly alternating measurements of fura-2 (excited at 340 & 380 nm) and DiBAC4(3) (excited at 490 nm) were performed using emission at 516 nm. Both dyes were measured using the special “Fura2-Fluo3” filter set 7400 from Chroma Technology (Brattleboro, Vt.), a Zeiss Axiovert 100 inverted microscope and a photometry system (model “Delta Ram” from Photon Technology International, Inc., Monmouth Junction, N.J.).
The bis-oxonol dye DiBAC4(3) was used as an indicator of transmembrane electrical potential changes (Langheinrich and Daut, J. Physiol. 502:397-408, 1997) when our hNT cells were treated with, for example, the β-amyloid peptide Aβ1-42. The use of this dye enabled us to monitor groups of 5-15 neurons, rather than single cells as would be the case with patch clamping methods. We expected great variability from cell to cell, as was found in our earlier patch clamp work (Sanderson et al., Brain Res. 744:7-14, 1997). The method has been used by many laboratories for the determination of membrane potentials in different cell types. Fluorescence is increased upon membrane depolarization as more dye enters the cytosol, resulting in increased binding to proteins (Braiuner et al., Biochim. Biophys. Acta 771:[…], 1984). Partitioning of bis-oxonol dye between the plasma membrane and the cytosol follows the Nernst equation (Langheinrich and Daut, 1997). Unless otherwise indicated, all measurements were carried out in Tyrode's solution containing 2 mM Ca.
We calibrated the gross fluorescence as a function of membrane potential by treating a culture of hNT neurons, bathed in Tyrode's 2Ca buffer with the usual 3 mM K^+, containing 97 nM DiBAC4(3), with Tyrode's 2Ca buffer containing 40 mM KCl. We measured the gross fluorescence at excitation=490 nm and emission=510 nm for the depolarization by KCl and for depolarization by the Aβ1-42 peptide. We used the formula proposed by Langheinrich and Daut, 1997: % ΔF=(1−Fmin/Fmax)*100=ΔEMmV
where Fmin=fluorescence before treatment, Fmax=fluorescence during treatment, ΔEM mV is the change in membrane potential brought about by the treatment. The calculation based on the expected depolarization by changing from 3 mM KCl to 40 MM KCl gave a value of ΔEM=3.8 mV/1% ΔF.
Groups of hNT neuronal cells (5-17) were exposed to Aβ1-42 (20 μM) that had been incubated at 37° C. for 48 hours; 97 nM DiBAC4(3) was present. Fluorescence was measured as described above; Ex=490 nm, Em=510 nm.

Series [4] is classed as physicochemical. Conditions: water.
Series [5] relates to hNT cells. Description: Internal calcium concentration [Ca2+]int in hNT cells (fura-2) on exposure to β-amyloid peptide or test agent alone. The class given is cell-based, human. Particulars: hNT cells, decoy peptide alone at 20 μM, filtered stocks, Tyrode's/2 mM Ca.
The test system of series [6] is voltage-gated calcium channels. As to the kind of experiment: Previous patch-clamp experiments on β-amyloid peptide calcium influx. It is filed as cell-based.
For series [7], the target named is T1, βAP25-35 (Homo sapiens, UniProt P05067).
T1 construct: made in house; host or cells: chemical peptide synthesis (BioPolymers Laboratory, MIT), HPLC purified
Description: Aggregation rate of βAP25-35 by light scattering at 500 nm. Conditions: decoy peptide at approximately equimolar concentration, Tyrode's/2 mM Ca^2+, light scattering 500 nm. It is filed as biochemical.

In series [8] the target is T2, βAP1-42 (Homo sapiens, UniProt P05067).
T2 construct: βAP1-42 (Aβ1-42); purchased Quality Control Biochemicals; host or cells: synthetic peptide
T2 sequence (P05067 672-713): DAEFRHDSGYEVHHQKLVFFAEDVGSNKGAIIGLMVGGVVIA
As to the kind of experiment: Aggregation rate of βAP1-42 by light scattering at 500 nm. The class given is biochemical. Conditions: decoy peptide at 1:1 molar ratio, Tyrode's/2 mM Ca^2+, light scattering 500 nm.

Setting [9] is: aggregated Aβ1-42 20 μM plus the named addition, [Ca^2+] 2 mM, Na^+.

“Also recorded” adds a separate entry of the source. Where two headings read alike, the source gives them in different places. Non-standard residues stand in square brackets, D forms with d. Residues, ends and D or L forms follow the SMILES beside them.

Turning to `N#Cc1cc2c(cc1[N+](=O)[O-])=NC(=O)C(=O)N=2` [CNQX, 6-cyano-7-nitroquinoxaline-2,3-dione], in series [1] (hNT cells, aggregated Aβ1-42, 20 μM CNQX added after desensitization), the “effect on calcium influx / cytosolic calcium caused by aggregated Aβ1-42” value was “completely inhibited; also recorded: lowers the remaining calcium level to the original control value”. Further, the “inhibition of calcium influx caused by aggregated Aβ1-42” value in series [1] is “inhibited”. In addition, the “[Ca^2+]int when antagonist added after βAP25-35 exposure” value in series [2] (cells first exposed to 21 μM βAP25-35 (270% of control), then βAP25-35 plus CNQX 22 μM) is “fell to control levels”. For the same molecule, the “block of calcium influx into hNT neuronal cells caused by βAP25-35” value in series [2] (concentration not stated) was “can be blocked”. Besides, the “effect on βAP25-35-induced calcium influx” value in series [2] (βAP25-35 21 μM, CNQX at 22 μM, applied together) was “completely prevented”. In series [3] (setting [9]), the “% ΔF in presence of addition” value was found to be 17.0% and the “Δ EM in presence of addition” value is given as “+64.6 mV”. In addition, the “effect on membrane depolarization (DiBAC4(3) fluorescence plateau) by aggregated Aβ1-42” value in series [3] (hNT cells, CNQX (20 μM) added after Aβ1-42aggr) is on record as “little change in fluorescence; also recorded: remained unchanged; also recorded: did not significantly change fluorescence”. Besides, in series [3], the “inhibition of membrane depolarization by aggregated Aβ1-42” value is given as “not inhibited”.
For `CC[C@@H](C)[C@@H](N)C(=O)N[C@H](C)C(=O)N[C@H](C)C(=O)NCC(=O)N[C@@H](C(=O)N[C@@H](C(=O)NCC(=O)NCC(=O)NCC(=O)O)[C@H](C)O)[C@H](C)CC` [DP1, ^+NH3-IAAGITGGG-COO^−] (H-[dI][dA][dA]G[dI][dT]GGG-OH), the solubility entry in series [4] is “water soluble”. Besides, the “effect of decoy peptide by itself on cytosolic calcium concentrations” value in series [5] is recorded as “raise cytosolic calcium concentrations somewhat”. Moreover, the “effect on increase in internal calcium concentration due to βAP25-35” value in series [2] is on record as “reduced or abolished the increase in the internal calcium concentration”.
For the molecule `NC1=N[C@H](O)[C@H]2[C@H]3O[C@]4(O)O[C@@H]([C@@H](O)[C@@]2(N1)[C@@H]4O)[C@]3(O)CO` [TTX, tetrodotoxin], in series [1], the “effect on rise in cytosolic calcium caused by aggregated Aβ1-42” value was “allowed both membrane depolarization and a rise in cytosolic calcium levels; also recorded: the rise in cytosolic calcium”. Besides, in series [3], the “% ΔF in presence of addition” value is reported as 17.3%; the “effect on membrane depolarization by aggregated Aβ1-42” value was “allowed both membrane depolarization and a rise in cytosolic calcium levels; also recorded: allows both membrane depolarization”; the “Δ EM in presence of addition” value is listed as “+65.7 mV”.
With `[Cl][Cd][Cl]` [cadmium chloride], in series [3], the “effect on membrane depolarization by aggregated Aβ1-42” value is recorded as “did not prevent membrane depolarization”. Moreover, the “block of β-amyloid peptide calcium influx” value in series [6] is “did not block the calcium influx”.
For the molecule D-AP5, the “effect on calcium influx caused by aggregated Aβ1-42” value in series [1] (hNT cells, aggregated 20 μM Aβ1-42, D-AP5 50 μM) is recorded as “largely, but not completely, abolished calcium influx; also recorded: does inhibit calcium influx”. For the same molecule, the “inhibition of calcium influx caused by aggregated Aβ1-42” value in series [1] is on record as “inhibited”. For the same molecule, in series [3] (setting [9]), the “% ΔF in presence of addition” value was determined as 10.4% and the “Δ EM in presence of addition” value is on record as “+39.5 mV”. Moreover, the “effect on membrane depolarization by aggregated Aβ1-42” value in series [3] (hNT cells, D-AP5 50 μM) was “did not interfere with the depolarization phenomenon; also recorded: does not block membrane depolarization”. For the same molecule, the “inhibition of membrane depolarization by aggregated Aβ1-42” value in series [3] is reported as “not inhibited”.
Regarding “^+NH3-TVIR^+TIAAA-COO^− (TVIRTIAAA) [DP8]”, the “effect of decoy peptide by itself on cytosolic calcium concentrations” value in series [5] is on record as “no effect on cytosolic calcium concentrations”. The “effect on βAP1-42 calcium influx” value in series [1] (hNT cells) is “reduced or abolished the effect of βAP1-42 on the calcium influx”. In addition, the “effect on βAP25-35 calcium influx at molar ratio” value in series [2] (DP8:βAP25-35 0.2:1 (5 mM DP8+20 mM βAP25-35)) was “modestly reduced”; in series [2] (DP8:βAP25-35 1:1 (10 mM DP8+10 mM βAP25-35)) it was “reduce or abolish the effect of the β-amyloid peptide”; in series [2] (DP8:βAP25-35 2:1 (20 mM DP8+11 mM βAP25-35)), “reduce or abolish the effect of the β-amyloid peptide”. In addition, in series [2], the “effect on increase in internal calcium concentration due to βAP25-35” value is on record as “reduced or abolished the increase in the internal calcium concentration”. The “effect on aggregation rate of βAP25-35” value in series [7] is “did not reduce the aggregation rate of βAP25-35”.
Take “^+NH3.T.P.I.R^+.T.P.A.P.A.COO^− (H-[dT][dP][dI][dR][dT][dP][dA][dP][dA]-OH; also: modified) [DP16]”: the “reduction of aggregation rate of βAP1-42” value in series [8] is “about 50%”. In series [1] (hNT cells), the “effect on βAP1-42 calcium influx” value is reported as “reduced or abolished the effect of βAP1-42 on the calcium influx”. The “effect on aggregation rate of βAP25-35” value in series [7] is reported as “reduced the aggregation rate of βAP25-35”.
